Results published in patent publication US4410716A, “Dibenzo[a,d]cycloheptene derivatives and process for production thereof” (Toa Eiyo Kagaku Kogyo Co. Ltd., priority 1979, dated 1983).
“Also recorded” adds a separate entry of the source. Where two headings read alike, the source gives them in different places.

Tests used:
[1] = system: edema (carrageenin, hind paw); test: Anti-inflammatory activity: carrageenin hind paw edema in rats, oral administration; type: in vivo, male Donryu rats; conditions: for inhibition in vivo at 25 mg/kg / inhibition in vivo at 100 mg/kg / inhibition in vivo at 1 mg/kg / inhibition in vivo at 5 mg/kg / inhibition in vivo at 10 mg/kg / ED40 / inhibition in vivo at 20 mg/kg / inhibition in vivo at 50 mg/kg: Rattus norvegicus; for inhibition in vivo at 25 mg/kg: 25 mg/kg oral; for inhibition in vivo at 25 mg/kg / inhibition in vivo at 100 mg/kg / inhibition in vivo at 1 mg/kg / inhibition in vivo at 5 mg/kg / inhibition in vivo at 10 mg/kg / inhibition in vivo at 20 mg/kg / inhibition in vivo at 50 mg/kg: read-out: Percent edema inhibition; for inhibition in vivo at 100 mg/kg: 100 mg/kg oral; for inhibition in vivo at 1 mg/kg: 1 mg/kg oral; for inhibition in vivo at 5 mg/kg: 5 mg/kg oral; for inhibition in vivo at 10 mg/kg: 10 mg/kg oral; for ED40: dose causing 40% inhibition, dose-response line, read-out: ED40 value; for ED40 / anti-inflammatory activity (in words): oral; for anti-inflammatory activity (in words): carrageenin edema, rat; for inhibition in vivo at 20 mg/kg: 20 mg/kg oral; for inhibition in vivo at 50 mg/kg: 50 mg/kg oral
Description: (§1) The anti-inflammatory activity, analgesic activity and ulcerogenic activity of the novel dibenzo[a,d]cycloheptene derivatives of this invention were tested by the following methods.
Each of test compounds was orally administered to groups of male Donryu rats weighing 130 to 150 g (8 to 10 rats per group), and one hour later, 0.1 ml of a 1% carrageenin solution was injected subcutaneously into the hind paw of each rat. After injection of carrageenin, the volume of the paw was measured at predetermined periods, and the percent inhibition against a control group was calculated.

[2] = system: writhing syndromes (acetic acid); test: Analgesic activity: acetic acid writhing in mice; type: in vivo, male ICR mice
Description: as §1
Using male ICR mice weighing 25 to 30 g (10 mice per group), there was measured the number of writhing syndromes induced when a 1% solution of acetic acid was intraperitoneally injected at a dose of 10 ml/kg. The percent inhibition against a control group was calculated.

in vivo = conditions: rat, in vivo, po
Description: as §1
(§2) Sixteen hours later, the rats were sacrificed under ether anesthesia.
(§3) *Calculated by the Adami's method.
(§4) **Calculated by the LitchfieldWilcoxon's method. The parenthesized values
(§5) show 95% confidence limits.

gastric wall = test: in vivo; conditions: rat, in vivo, po
Description: as §1, §2, §3, §4, §5

Work on `O=C(O)Cc1ccc2c(c1)CC(=O)c1cc(Cl)ccc1C2` [Ie, 8-chloro-10,11-dihydro-10-oxo-5H-dibenzo[a,d]cycloheptene-2-acetic acid] yielded an inhibition in vivo at 25 mg/kg ([1]; 1 hour after carrageenin) of 4.5%, an inhibition in vivo at 25 mg/kg ([1]; 2 hours after carrageenin) of 8.6% and an inhibition in vivo at 25 mg/kg ([1]; 3 hours after carrageenin) of 3%. The inhibition in vivo at 25 mg/kg ([1]; 4 hours after carrageenin) was 2.3%, the inhibition in vivo at 100 mg/kg ([1]; 1 hour after carrageenin) was -0.7% and the inhibition in vivo at 100 mg/kg ([1]; 2 hours after carrageenin) was 1.3%. For the same molecule, the inhibition in vivo at 100 mg/kg ([1]; 3 hours after carrageenin) was -4.2% and the inhibition in vivo at 100 mg/kg ([1]; 4 hours after carrageenin) was -1.8%.

For `CC(C(=O)O)c1ccc2c(c1)C(=O)Cc1ccccc1C2` (stereo not drawn) [compound Ii, 2-(10,11-dihydro-11-oxo-5H-dibenzo[a,d]cyclohepten-2-yl)propionic acid], the inhibition in vivo at 1 mg/kg ([1]; 1 hour after carrageenin) was 34.4%, the inhibition in vivo at 1 mg/kg ([1]; 2 hours after carrageenin) was 30.6% and the inhibition in vivo at 1 mg/kg ([1]; 3 hours after carrageenin) was 32.4%. For the same molecule, the inhibition in vivo at 1 mg/kg ([1]; 4 hours after carrageenin) was 32.4%, the inhibition in vivo at 5 mg/kg ([1]; 1 hour after carrageenin) was 35.8% and the inhibition in vivo at 5 mg/kg ([1]; 2 hours after carrageenin) was 54%. The inhibition in vivo at 5 mg/kg ([1]; 3 hours after carrageenin) was 51.7%, the inhibition in vivo at 5 mg/kg ([1]; 4 hours after carrageenin) was 50.9% and the inhibition in vivo at 10 mg/kg ([1]; 1 hour after carrageenin) was 50%. For the same molecule, the inhibition in vivo at 10 mg/kg ([1]; 2 hours after carrageenin) was 55%, the inhibition in vivo at 10 mg/kg ([1]; 3 hours after carrageenin) was 54.6% and the inhibition in vivo at 10 mg/kg ([1]; 4 hours after carrageenin) was 54.6%. The ED40 ([1]; 3 hours after carrageenin) was 1.9 mg/kg, the “anti-inflammatory activity (in words)” value [1] was “excellent anti-inflammatory activity; also recorded: stronger than that of indomethacin; also recorded: very potent anti-inflammatory activity” and the “Inhibition (writhing)” value ([2]; 10.0 mg/kg) was 14.0%. For the same molecule, the “Number of writhing syndromes (Mean ± SE)” value ([2]; 10.0 mg/kg) was 19.7 ± 1.77, the “Inhibition (writhing)” value ([2]; 20.0 mg/kg) was 33.6% and the “Number of writhing syndromes (Mean ± SE)” value ([2]; 20.0 mg/kg) was 15.2 ± 1.28. For the same molecule, the “Inhibition (writhing)” value ([2]; 40.0 mg/kg) was 45.4%, the “Number of writhing syndromes (Mean ± SE)” value ([2]; 40.0 mg/kg) was 12.5 ± 1.65 and the “Inhibition (writhing)” value ([2]; 80.0 mg/kg) was 57.6%. For the same molecule, the “Number of writhing syndromes (Mean ± SE)” value ([2]; 80.0 mg/kg) was 9.7 ± 1.93, the ED50 ([2]; Mus musculus, po, dose causing 50% inhibition of writhing, dose-response line, read-out: ED50 value) was 52 mg/kg and the “ED50 value relative to that of indomethacin” value ([2]; writhing, mouse) was “ten times”. For the same molecule, the “analgesic activity (in words)” value ([2]; writhing, mouse) was “weak analgesic activity”, the “analgesic activity relative to indomethacin” value ([2]; writhing, mouse) was “one-tenth of that of indomethacin” and the TD50 at 16 h (in vivo) was 15 mg/kg. It also gave a selectivity ratio (in vivo) of 7.9.

In the case of `O=C(O)Cc1ccc2c(c1)C(=O)Cc1cc(F)ccc1C2` [Ib, 8-fluoro-10,11-dihydro-11-oxo-5H-dibenzo[a,d]cycloheptene-2-acetic acid], the inhibition in vivo at 25 mg/kg ([1]; 1 hour after carrageenin) is reported as 32.4%, the inhibition in vivo at 25 mg/kg ([1]; 2 hours after carrageenin) is reported as 45.3% and the inhibition in vivo at 25 mg/kg ([1]; 3 hours after carrageenin) is reported as 43.4%. For the same molecule, the inhibition in vivo at 25 mg/kg ([1]; 4 hours after carrageenin) was 41.9%, the inhibition in vivo at 100 mg/kg ([1]; 1 hour after carrageenin) was 44.1% and the inhibition in vivo at 100 mg/kg ([1]; 2 hours after carrageenin) was 57.9%. The inhibition in vivo at 100 mg/kg ([1]; 3 hours after carrageenin) was 52.6%, the inhibition in vivo at 100 mg/kg ([1]; 4 hours after carrageenin) was 53% and the ED40 ([1]; 3 hours after carrageenin) was 15 mg/kg. The “anti-inflammatory activity (in words)” value [1] was “excellent anti-inflammatory activity; also recorded: evidently show anti-inflammatory activity although their activity is weaker than that of indomethacin” and the “ulcerogenic activity (in words)” value (gastric wall) was “much weaker than that of indomethacin”.

With `O=C(O)Cc1ccc2c(c1)Cc1ccccc1C(=O)C2` [If, 10,11-dihydro-10-oxo-5H-dibenzo[a,d]cycloheptene-3-acetic acid] the inhibition in vivo at 25 mg/kg ([1]; 1 hour after carrageenin) was -22.6%, the inhibition in vivo at 25 mg/kg ([1]; 2 hours after carrageenin) was -16.8% and the inhibition in vivo at 25 mg/kg ([1]; 3 hours after carrageenin) was -12.3%. The inhibition in vivo at 25 mg/kg ([1]; 4 hours after carrageenin) was -8.7%, the inhibition in vivo at 100 mg/kg ([1]; 1 hour after carrageenin) was -23.5% and the inhibition in vivo at 100 mg/kg ([1]; 2 hours after carrageenin) was -21.4%. For the same molecule, the inhibition in vivo at 100 mg/kg ([1]; 3 hours after carrageenin) was -9.1% and the inhibition in vivo at 100 mg/kg ([1]; 4 hours after carrageenin) was -5.5%.

For `O=C(O)Cc1ccc2c(c1)CC(=O)c1ccccc1C2` [Id, 10,11-dihydro-10-oxo-5H-dibenzo[a,d]cycloheptene-2-acetic acid], the inhibition in vivo at 25 mg/kg ([1]; 1 hour after carrageenin) was 36%, the inhibition in vivo at 25 mg/kg ([1]; 2 hours after carrageenin) was 36% and the inhibition in vivo at 25 mg/kg ([1]; 3 hours after carrageenin) was 21.4%. The inhibition in vivo at 25 mg/kg ([1]; 4 hours after carrageenin) was 18.4%, the inhibition in vivo at 100 mg/kg ([1]; 1 hour after carrageenin) was 44.6% and the inhibition in vivo at 100 mg/kg ([1]; 2 hours after carrageenin) was 39%. It also gave an inhibition in vivo at 100 mg/kg ([1]; 3 hours after carrageenin) of 28.1% and an inhibition in vivo at 100 mg/kg ([1]; 4 hours after carrageenin) of 21.4%.

For `O=C(O)Cc1ccc2c(c1)C(=O)Cc1ccccc1C2` [Ia, 10,11-dihydro-11-oxo-5H-dibenzo[a,d]cycloheptene-2-acetic acid], the inhibition in vivo at 25 mg/kg ([1]; 1 hour after carrageenin) was 28.2%, the inhibition in vivo at 25 mg/kg ([1]; 2 hours after carrageenin) was 41.8% and the inhibition in vivo at 25 mg/kg ([1]; 3 hours after carrageenin) was 44.5%. It also gave an inhibition in vivo at 25 mg/kg ([1]; 4 hours after carrageenin) of 41%, an inhibition in vivo at 100 mg/kg ([1]; 1 hour after carrageenin) of 33% and an inhibition in vivo at 100 mg/kg ([1]; 2 hours after carrageenin) of 50%. It also gave an inhibition in vivo at 100 mg/kg ([1]; 3 hours after carrageenin) of 53.7%, an inhibition in vivo at 100 mg/kg ([1]; 4 hours after carrageenin) of 52.2% and an ED40 ([1]; 3 hours after carrageenin) of 13 mg/kg. For the same molecule, the “anti-inflammatory activity (in words)” value [1] was “excellent anti-inflammatory activity; also recorded: evidently show anti-inflammatory activity although their activity is weaker than that of indomethacin” and the “ulcerogenic activity (in words)” value (gastric wall) was “much weaker than that of indomethacin”.

For `COC1=Cc2ccccc2Cc2ccc(CC(=O)O)cc21` [Ig, 11-methoxy-5H-dibenzo[a,d]cycloheptene-2-acetic acid], the inhibition in vivo at 100 mg/kg ([1]; 1 hour after carrageenin) was 25.5%, the inhibition in vivo at 100 mg/kg ([1]; 2 hours after carrageenin) was 40.6% and the inhibition in vivo at 100 mg/kg ([1]; 3 hours after carrageenin) was 42.6%. It also gave an inhibition in vivo at 100 mg/kg ([1]; 4 hours after carrageenin) of 37.1%.

With `O=C(O)Cc1ccc2c(c1)Cc1ccccc1CC2=O` [Ic, 10,11-dihydro-11-oxo-5H-dibenzo[a,d]cycloheptene-3-acetic acid] the inhibition in vivo at 25 mg/kg ([1]; 1 hour after carrageenin) was 32.8%, the inhibition in vivo at 25 mg/kg ([1]; 2 hours after carrageenin) was 29.4% and the inhibition in vivo at 25 mg/kg ([1]; 3 hours after carrageenin) was 25.5%. For the same molecule, the inhibition in vivo at 25 mg/kg ([1]; 4 hours after carrageenin) was 24%, the inhibition in vivo at 100 mg/kg ([1]; 1 hour after carrageenin) was 51.4% and the inhibition in vivo at 100 mg/kg ([1]; 2 hours after carrageenin) was 44.7%. It also gave an inhibition in vivo at 100 mg/kg ([1]; 3 hours after carrageenin) of 40.7%, an inhibition in vivo at 100 mg/kg ([1]; 4 hours after carrageenin) of 39.3% and an ED40 ([1]; 3 hours after carrageenin) of 94 mg/kg. For the same molecule, the “anti-inflammatory activity (in words)” value [1] was “excellent anti-inflammatory activity; also recorded: evidently show anti-inflammatory activity although their activity is weaker than that of indomethacin”.

`COC1=Cc2ccccc2Cc2ccc(C(C)C(=O)O)cc21` (stereo not drawn) [Ih, 2-(11-methoxy-5H-dibenzo[a,d]cyclohepten-2-yl)propionic acid] gave an inhibition in vivo at 5 mg/kg ([1]; 1 hour after carrageenin) of 18.4%, an inhibition in vivo at 5 mg/kg ([1]; 2 hours after carrageenin) of 24.7% and an inhibition in vivo at 5 mg/kg ([1]; 3 hours after carrageenin) of 12%. For the same molecule, the inhibition in vivo at 5 mg/kg ([1]; 4 hours after carrageenin) was 12.6%, the inhibition in vivo at 20 mg/kg ([1]; 1 hour after carrageenin) was 28.1% and the inhibition in vivo at 20 mg/kg ([1]; 2 hours after carrageenin) was 22.9%. The inhibition in vivo at 20 mg/kg ([1]; 3 hours after carrageenin) was 26.8%, the inhibition in vivo at 20 mg/kg ([1]; 4 hours after carrageenin) was 26.8% and the inhibition in vivo at 50 mg/kg ([1]; 1 hour after carrageenin) was 35.6%. The inhibition in vivo at 50 mg/kg ([1]; 2 hours after carrageenin) was 32.9%, the inhibition in vivo at 50 mg/kg ([1]; 3 hours after carrageenin) was 35.4% and the inhibition in vivo at 50 mg/kg ([1]; 4 hours after carrageenin) was 35.7%. The ED40 ([1]; 3 hours after carrageenin) was 77 mg/kg and the “anti-inflammatory activity (in words)” value [1] was “excellent anti-inflammatory activity; also recorded: evidently show anti-inflammatory activity although their activity is weaker than that of indomethacin”.
